The values that follow are results of earlier work, collected in paper PMC5677520 (Journal of medicinal chemistry, 2017).

For this series the following is noted: result in words.

As for `CC[C@H](C)[C@@H]1NC(=O)c2csc(n2)[C@@H](C)NC(=O)[C@H]2N=C(O[C@@H]2C)[C@H](C(C)C)NC(=O)c2csc(n2)[C@@H](Cc2ccccc2)NC(=O)[C@H]2N=C1O[C@@H]2C` [patellamide C], the passive permeabilities entry is recorded as “druglike”.
cylindrocyclin: the passive permeabilities entry is “druglike”.
